Results on 23 molecules are retold here after patent US10570129B2 (Zoetis Services LLC, priority 2015, dated 2020).

SMILES strings stand for the structures.

The subject of one test is D. immitis microfilariae. Nature of the test: Dirofilaria immitis, microfilariae (DiMF) in vitro motility assay. Type of test: cell-based. The settings on record: Dirofilaria immitis, 72 h, read-out: DiMF minimally effective dose (MEC).
A further test has as its system Haemonchus contortus L3. Nature of the test: microbe, parasite or virus in culture. Type of test: cell-based. As to conditions: Haemonchus contortus, 96 h, read-out: HcL3 Minimal Effective Concentration (MEC).

Turning to `N#Cc1ccc2c(c1)c1c(n2C(=O)NCc2ccnc(Cl)c2)CCN(C/C=C/c2c(F)c(F)c(Cl)c(F)c2F)C1` [Example 84, (E)-2-(3-(4-chloro-2,3,5,6-tetrafluorophenyl)allyl)-N-((2-chloropyridin-4-yl)methyl)-8-cyano-1,2,3,4-tetrahydro-5H-pyrido[4,3-b]indole-5-carboxamide], the minimal effective concentration with D. immitis microfilariae is greater than 100 µM; in the test with Haemonchus contortus L3 it was 0.1 µM.
`N#Cc1ccc2c(c1)c1c(n2C(=O)NCc2ccnc(Cl)c2)CCN(C/C=C/c2ccc(Br)c(F)c2)C1` [Example 85, (E)-2-(3-(4-bromo-3-fluorophenyl)allyl)-N-((2-chloropyridin-4-yl)methyl)-8-cyano-1,2,3,4-tetrahydro-5H-pyrido[4,3-b]indole-5-carboxamide]: the minimal effective concentration was greater than 100 µM in the test with D. immitis microfilariae and 0.1 µM in the test with Haemonchus contortus L3.
Consider `N#Cc1ccc2c(c1)c1c(n2C(=O)NCc2ccnc(Cl)c2)CCN(C/C=C/c2ccc(F)cc2Cl)C1` [Example 87, (E)-2-(3-(2-chloro-4-fluorophenyl)allyl)-N-((2-chloropyridin-4-yl)methyl)-8-cyano-1,2,3,4-tetrahydro-5H-pyrido[4,3-b]indole-5-carboxamide], for which the minimal effective concentration with D. immitis microfilariae was determined as 5.7 µM; in the test on Haemonchus contortus L3 it was 0.2 µM.
As to `N#Cc1ccc2c(c1)c1c(n2C(=O)NCc2ccnc(Cl)c2)CCN(C/C=C/c2cc(F)c(F)c(F)c2)C1` [Example 89, (E)-N-((2-chloropyridin-4-yl)methyl)-8-cyano-2-(3-(3,4,5-trifluorophenyl)allyl)-1,2,3,4-tetrahydro-5H-pyrido[4,3-b]indole-5-carboxamide], the minimal effective concentration in the test on D. immitis microfilariae was determined as 1 µM; in the test with Haemonchus contortus L3, 0.1 µM.
For the molecule `N#Cc1ccc2c(c1)c1c(n2C(=O)NCc2ccnc(Cl)c2)CCN(C/C=C/c2cc(F)cc(F)c2)C1` [Example 90, (E)-N-((2-chloropyridin-4-yl)methyl)-8-cyano-2-(3-(3,5-difluorophenyl)allyl)-1,2,3,4-tetrahydro-5H-pyrido[4,3-b]indole-5-carboxamide], the minimal effective concentration was determined as 3.3 µM in the test on D. immitis microfilariae and 0.1 µM with Haemonchus contortus L3.
Take `N#Cc1ccc(/C=C/CN2CCc3c(c4cc(C#N)ccc4n3C(=O)NCc3ccnc(Cl)c3)C2)cc1` [Example 91, (E)-N-((2-chloropyridin-4-yl)methyl)-8-cyano-2-(3-(4-cyanophenyl)allyl)-1,2,3,4-tetrahydro-5H-pyrido[4,3-b]indole-5-carboxamide]: the minimal effective concentration with D. immitis microfilariae was found to be 13.5 µM; in the test on Haemonchus contortus L3, 0.4 µM.
Taken in the same sequence, the figures for `N#Cc1ccc2c(c1)c1c(n2C(=O)NCc2ccnc(Cl)c2)CCN(C/C=C/c2ccc(Cl)cc2)C1` [Example 92, (E)-2-(3-(4-chlorophenyl)allyl)-N-((2-chloropyridin-4-yl)methyl)-8-cyano-1,2,3,4-tetrahydro-5H-pyrido[4,3-b]indole-5-carboxamide] were 3.3 µM and 0.3 µM.
Consider `N#Cc1ccc2c(c1)c1c(n2C(=O)NCc2ccnc(Cl)c2)CCN(C/C=C/c2ccc(Cl)c(Cl)c2)C1` [Example 93, (E)-N-((2-chloropyridin-4-yl)methyl)-8-cyano-2-(3-(3,4-dichlorophenyl)allyl)-1,2,3,4-tetrahydro-5H-pyrido[4,3-b]indole-5-carboxamide], for which the minimal effective concentration is 2.4 µM in the test on D. immitis microfilariae and 0.7 µM in the test with Haemonchus contortus L3.
In the same order, the values of `N#Cc1ccc2c(c1)c1c(n2C(=O)NCc2ccnc(Cl)c2)CCN(C/C=C/c2ccc(F)cc2Br)C1` [Example 94, (E)-2-(3-(2-bromo-4-fluorophenyl)allyl)-N-((2-chloropyridin-4-yl)methyl)-8-cyano-1,2,3,4-tetrahydro-5H-pyrido[4,3-b]indole-5-carboxamide] are greater than 100 µM and 0.1 µM.
As to `Cc1cc(/C=C/CN2CCc3c(c4cc(C#N)ccc4n3C(=O)NCc3ccnc(Cl)c3)C2)ccc1Cl` [Example 96, (E)-2-(3-(4-chloro-3-methylphenyl)allyl)-N-((2-chloropyridin-4-yl)methyl)-8-cyano-1,2,3,4-tetrahydro-5H-pyrido[4,3-b]indole-5-carboxamide], the minimal effective concentration was greater than 100 µM in the test with D. immitis microfilariae and 0.2 µM in the test with Haemonchus contortus L3.
On to `N#Cc1ccc2c(c1)c1c(n2C(=O)NCc2ccnc(Cl)c2)CCN(C/C=C/c2ccc(Cl)c(Br)c2)C1` [Example 97, (E)-2-(3-(3-bromo-4-chlorophenyl)allyl)-N-((2-chloropyridin-4-yl)methyl)-8-cyano-1,2,3,4-tetrahydro-5H-pyrido[4,3-b]indole-5-carboxamide], for which the minimal effective concentration in the test with D. immitis microfilariae was greater than 100 µM; in the test on Haemonchus contortus L3, 0.3 µM.
Taken in the same sequence, the figures for `N#Cc1ccc2c(c1)c1c(n2C(=O)NCc2ccnc(Cl)c2)CCN(C/C=C/c2ccc(F)c(C#N)c2)C1` [Example 98, (E)-N-((2-chloropyridin-4-yl)methyl)-8-cyano-2-(3-(3-cyano-4-fluorophenyl)allyl)-1,2,3,4-tetrahydro-5H-pyrido[4,3-b]indole-5-carboxamide] were greater than 100 µM and 0.3 µM.
In the case of `CS(=O)(=O)c1ccc(/C=C/CN2CCc3c(c4cc(C#N)ccc4n3C(=O)NCc3ccnc(F)c3)C2)cc1` [Example 100, (E)-8-cyano-N-((2-fluoropyridin-4-yl)methyl)-2-(3-(4-(methylsulfonyl)-phenyl)allyl)-1,2,3,4-tetrahydro-5H-pyrido[4,3-b]indole-5-carboxamide], the minimal effective concentration in the test with D. immitis microfilariae and in the test with Haemonchus contortus L3 was greater than 100 µM throughout.
For `N#Cc1ccc2c(c1)c1c(n2C(=O)NCc2ccnc(F)c2)CCN(C/C=C/c2ccc(Cl)cc2Cl)C1` [Example 101, (E)-8-cyano-2-(3-(2,4-dichlorophenyl)allyl)-N-((2-fluoropyridin-4-yl)methyl)-1,2,3,4-tetrahydro-5H-pyrido[4,3-b]indole-5-carboxamide], the minimal effective concentration came out at 24 µM in the test on D. immitis microfilariae and 0.2 µM with Haemonchus contortus L3.
As to `N#Cc1ccc2c(c1)c1c(n2C(=O)NCc2ccnc(F)c2)CCN(C/C=C/c2c(F)cc(Cl)cc2F)C1` [Example 103, (E)-2-(3-(4-chloro-2,6-difluorophenyl)allyl)-8-cyano-N-((2-fluoropyridin-4-yl)methyl)-1,2,3,4-tetrahydro-5H-pyrido[4,3-b]indole-5-carboxamide], the minimal effective concentration with D. immitis microfilariae came out at 3.3 µM; with Haemonchus contortus L3, 0.2 µM.
Turning to `N#Cc1ccc2c(c1)c1c(n2C(=O)NCc2ccnc(F)c2)CCN(C/C=C/c2ccc(Cl)cc2F)C1` [Example 104, (E)-2-(3-(4-chloro-2-fluorophenyl)allyl)-8-cyano-N-((2-fluoropyridin-4-yl)methyl)-1,2,3,4-tetrahydro-5H-pyrido[4,3-b]indole-5-carboxamide], the results for the minimal effective concentration with D. immitis microfilariae and in the test on Haemonchus contortus L3 were 3.2 µM and 0.1 µM, respectively.
In the case of `N#Cc1ccc2c(c1)c1c(n2C(=O)NCc2ccnc(F)c2)CCN(C/C=C/c2ccc(Br)c(F)c2)C1` [Example 105, (E)-2-(3-(4-bromo-3-fluorophenyl)allyl)-8-cyano-N-((2-fluoropyridin-4-yl)methyl)-1,2,3,4-tetrahydro-5H-pyrido[4,3-b]indole-5-carboxamide], the minimal effective concentration is greater than 100 µM in the test with D. immitis microfilariae and 0.3 µM in the test with Haemonchus contortus L3.
For `N#Cc1ccc2c(c1)c1c(n2C(=O)NCc2ccnc(F)c2)CCN(C/C=C/c2c(F)cc(F)cc2F)C1` [Example 106, (E)-8-cyano-N-((2-fluoropyridin-4-yl)methyl)-2-(3-(2,4,6-trifluorophenyl)allyl)-1,2,3,4-tetrahydro-5H-pyrido[4,3-b]indole-5-carboxamide], the minimal effective concentration in the test on D. immitis microfilariae was greater than 100 µM; with Haemonchus contortus L3, 0.3 µM.
Regarding `N#Cc1ccc2c(c1)c1c(n2C(=O)NCc2ccnc(F)c2)CCN(C/C=C/c2cc(F)ccc2Br)C1` [Example 107, (E)-2-(3-(2-bromo-5-fluorophenyl)allyl)-8-cyano-N-((2-fluoropyridin-4-yl)methyl)-1,2,3,4-tetrahydro-5H-pyrido[4,3-b]indole-5-carboxamide], the minimal effective concentration in the test on D. immitis microfilariae amounted to 1.8 µM; in the test on Haemonchus contortus L3 it was 0.5 µM.
As for `N#Cc1ccc2c(c1)c1c(n2C(=O)NCc2ccnc(F)c2)CCN(C/C=C/c2ccc(F)c(F)c2F)C1` [Example 110, (E)-8-cyano-N-((2-fluoropyridin-4-yl)methyl)-2-(3-(2,3,4-trifluorophenyl)allyl)-1,2,3,4-tetrahydro-5H-pyrido[4,3-b]indole-5-carboxamide], the minimal effective concentration in the test with D. immitis microfilariae is greater than 100 µM; with Haemonchus contortus L3, 0.3 µM.
`N#Cc1ccc2c(c1)c1c(n2C(=O)NCc2ccnc(F)c2)CCN(C/C=C/c2ccc(Br)c(F)c2F)C1` [Example 111, (E)-2-(3-(4-bromo-2,3-difluorophenyl)allyl)-8-cyano-N-((2-fluoropyridin-4-yl)methyl)-1,2,3,4-tetrahydro-5H-pyrido[4,3-b]indole-5-carboxamide]: the minimal effective concentration with D. immitis microfilariae was greater than 100 µM; with Haemonchus contortus L3 it was 0.3 µM.
As to `N#Cc1ccc2c(c1)c1c(n2C(=O)NCc2ccnc(F)c2)CCN(C/C=C/c2cc(Cl)c(F)c(Cl)c2)C1` [Example 112, (E)-8-cyano-2-(3-(3,5-dichloro-4-fluorophenyl)allyl)-N-((2-fluoropyridin-4-yl)methyl)-1,2,3,4-tetrahydro-5H-pyrido[4,3-b]indole-5-carboxamide], the minimal effective concentration with D. immitis microfilariae was greater than 100 µM; in the test with Haemonchus contortus L3 it was 0.5 µM.
Turning to `N#Cc1ccc2c(c1)c1c(n2C(=O)NCc2ccnc(F)c2)CCN(C/C=C/c2ccc(F)c(C#N)c2)C1` [Example 113, (E)-8-cyano-2-(3-(3-cyano-4-fluorophenyl)allyl)-N-((2-fluoropyridin-4-yl)methyl)-1,2,3,4-tetrahydro-5H-pyrido[4,3-b]indole-5-carboxamide], the minimal effective concentration is greater than 100 µM in the test with D. immitis microfilariae and 1.3 µM with Haemonchus contortus L3.
